Consider 18 compounds from ChEMBL document CHEMBL2086297, “Reduced pulmonary surfactant interaction of daptomycin analogs via tryptophan replacement with alternative amino acids” (2012).

Common to all, as to assay type: functional
The subject of test [1] is Staphylococcus aureus. Put plainly: Antibacterial activity against methicillin-susceptible Staphylococcus aureus ATCC 29213 by broth microdilution method in presence of 5% pulmonary surfactant. The following applies: ATCC 29213, Pulmonary surfactant. (In general: Broth dilution looks for growth in wells or tubes with falling amounts of substance.)
In test [2] the test system is Staphylococcus aureus. In words: Antibacterial activity against methicillin-susceptible Staphylococcus aureus ATCC 29213 by broth microdilution method in presence of 4% human serum albumin.
Test [3] relates to Staphylococcus aureus. In words: Antibacterial activity against methicillin-susceptible Staphylococcus aureus ATCC 29213 by broth microdilution method in presence of 1% pulmonary surfactant. The note with it: ATCC 29213, Pulmonary surfactant.
The subject of test [4] is Staphylococcus aureus. Put plainly: Antibacterial activity against methicillin-susceptible Staphylococcus aureus ATCC 29213 grown on calcium supplemented Mueller-Hinton broth by broth microdilution method.

Molecules are shown by their SMILES. Values after ≈ are worked out from the molar mass of the structure shown.

As a reminder, the MIC is the least concentration at which growth counts as inhibited.

`CCCCCCCCCC(=O)N[C@@H](Cc1ccc(C(F)(F)F)cc1)C(=O)N[C@@H](CC(N)=O)C(=O)N[C@@H](CC(=O)O)C(=O)N[C@@H]1C(=O)NCC(=O)N[C@@H](CCCN)C(=O)N[C@@H](CC(=O)O)C(=O)N[C@H](C)C(=O)N[C@@H](CC(=O)O)C(=O)NCC(=O)N[C@H](CO)C(=O)N[C@@H]([C@@H](C)CC(=O)O)C(=O)N[C@@H](CC(=O)c2ccccc2N)C(=O)O[C@@H]1C`: the MIC in test [1] is more than 32 µg/mL; in test [2] it was 8 µg/mL; in test [3], 32 µg/mL; in test [4] it was 2 µg/mL (≈ 1.21 µM).
On to `CCCCCCCCCC(=O)N[C@@H](Cc1ccc(O)cc1)C(=O)N[C@@H](CC(N)=O)C(=O)N[C@@H](CC(=O)O)C(=O)N[C@@H]1C(=O)NCC(=O)N[C@@H](CCCN)C(=O)N[C@@H](CC(=O)O)C(=O)N[C@H](C)C(=O)N[C@@H](CC(=O)O)C(=O)NCC(=O)N[C@H](CO)C(=O)N[C@@H]([C@@H](C)CC(=O)O)C(=O)N[C@@H](CC(=O)c2ccccc2N)C(=O)O[C@@H]1C`, for which the MIC in test [1], in test [2], in test [3] and in test [4] was more than 32 µg/mL throughout.
In the case of `CCCCCCCCCC(=O)N[C@@H](Cc1ccc(OC)cc1OC)C(=O)N[C@@H](CC(N)=O)C(=O)N[C@@H](CC(=O)O)C(=O)N[C@@H]1C(=O)NCC(=O)N[C@@H](CCCN)C(=O)N[C@@H](CC(=O)O)C(=O)N[C@H](C)C(=O)N[C@@H](CC(=O)O)C(=O)NCC(=O)N[C@H](CO)C(=O)N[C@@H]([C@@H](C)CC(=O)O)C(=O)N[C@@H](CC(=O)c2ccccc2N)C(=O)O[C@@H]1C`, the MIC in test [1] turned out to be 8 µg/mL; in test [2], 16 µg/mL; in test [3], 8 µg/mL; in test [4] it was 8 µg/mL (≈ 4.87 µM).
`CCCCCCCCCC(=O)N[C@@H](Cc1cccc(OC)c1)C(=O)N[C@@H](CC(N)=O)C(=O)N[C@@H](CC(=O)O)C(=O)N[C@@H]1C(=O)NCC(=O)N[C@@H](CCCN)C(=O)N[C@@H](CC(=O)O)C(=O)N[C@H](C)C(=O)N[C@@H](CC(=O)O)C(=O)NCC(=O)N[C@H](CO)C(=O)N[C@@H]([C@@H](C)CC(=O)O)C(=O)N[C@@H](CC(=O)c2ccccc2N)C(=O)O[C@@H]1C`: the MIC in test [1] worked out at 4 µg/mL; in test [2], 4 µg/mL; in test [3], 2 µg/mL; in test [4], 2 µg/mL (≈ 1.24 µM).
For `CCCCCCCCCC(=O)N[C@@H](CCc1ccc(OC)cc1)C(=O)N[C@@H](CC(N)=O)C(=O)N[C@@H](CC(=O)O)C(=O)N[C@@H]1C(=O)NCC(=O)N[C@@H](CCCN)C(=O)N[C@@H](CC(=O)O)C(=O)N[C@H](C)C(=O)N[C@@H](CC(=O)O)C(=O)NCC(=O)N[C@H](CO)C(=O)N[C@@H]([C@@H](C)CC(=O)O)C(=O)N[C@@H](CC(=O)c2ccccc2N)C(=O)O[C@@H]1C`, the MIC in test [1] is 32 µg/mL; in test [2], 8 µg/mL; in test [3], 8 µg/mL; in test [4], 2 µg/mL (≈ 1.23 µM).
As for `CCCCCCCCCC(=O)N[C@@H](CCc1ccccc1)C(=O)N[C@@H](CC(N)=O)C(=O)N[C@@H](CC(=O)O)C(=O)N[C@@H]1C(=O)NCC(=O)N[C@@H](CCCN)C(=O)N[C@@H](CC(=O)O)C(=O)N[C@H](C)C(=O)N[C@@H](CC(=O)O)C(=O)NCC(=O)N[C@H](CO)C(=O)N[C@@H]([C@@H](C)CC(=O)O)C(=O)N[C@@H](CC(=O)c2ccccc2N)C(=O)O[C@@H]1C`, the MIC in test [1] amounted to 32 µg/mL; in test [2], 4 µg/mL; in test [3], 8 µg/mL; in test [4], 1 µg/mL (≈ 0.627 µM).
Turning to `CCCCCCCCCC(=O)N[C@@H](Cc1c[nH]c2ccc(OC)cc12)C(=O)N[C@@H](CC(N)=O)C(=O)N[C@@H](CC(=O)O)C(=O)N[C@@H]1C(=O)NCC(=O)N[C@@H](CCCN)C(=O)N[C@@H](CC(=O)O)C(=O)N[C@H](C)C(=O)N[C@@H](CC(=O)O)C(=O)NCC(=O)N[C@H](CO)C(=O)N[C@@H]([C@@H](C)CC(=O)O)C(=O)N[C@@H](CC(=O)c2ccccc2N)C(=O)O[C@@H]1C`, the MIC in test [1] came out at 32 µg/mL; in test [2], 8 µg/mL; in test [3], 16 µg/mL; in test [4], 4 µg/mL (≈ 2.42 µM).
For `CO/N=C(\C(=O)N[C@@H]1C(=O)N2C(C(=O)O)=C(CSc3nc(=O)c(O)nn3C)CS[C@H]12)c1csc(N)n1` [CEFTRIAXONE], the MIC in test [1] worked out at 2 µg/mL; in test [2], 8 µg/mL; in test [3], 2 µg/mL; in test [4] it was 2 µg/mL (≈ 3.61 µM).
In the case of `CCCCCCCCCC(=O)N[C@@H](Cc1ccc(N)cc1)C(=O)N[C@@H](CC(N)=O)C(=O)N[C@@H](CC(=O)O)C(=O)N[C@@H]1C(=O)NCC(=O)N[C@@H](CCCN)C(=O)N[C@@H](CC(=O)O)C(=O)N[C@H](C)C(=O)N[C@@H](CC(=O)O)C(=O)NCC(=O)N[C@H](CO)C(=O)N[C@@H]([C@@H](C)CC(=O)O)C(=O)N[C@@H](CC(=O)c2ccccc2N)C(=O)O[C@@H]1C`, the MIC in test [1] stood at 32 µg/mL; in test [2], 32 µg/mL; in test [3] it was 16 µg/mL; in test [4] it was 16 µg/mL (≈ 10 µM).
For `CCCCCCCCCC(=O)N[C@@H](Cc1c[nH]c2ccc(F)cc12)C(=O)N[C@@H](CC(N)=O)C(=O)N[C@@H](CC(=O)O)C(=O)N[C@@H]1C(=O)NCC(=O)N[C@@H](CCCN)C(=O)N[C@@H](CC(=O)O)C(=O)N[C@H](C)C(=O)N[C@@H](CC(=O)O)C(=O)NCC(=O)N[C@H](CO)C(=O)N[C@@H]([C@@H](C)CC(=O)O)C(=O)N[C@@H](CC(=O)c2ccccc2N)C(=O)O[C@@H]1C`, the MIC in test [1] was more than 32 µg/mL; in test [2] it was 1 µg/mL; in test [3] it was 16 µg/mL; in test [4], 0.25 µg/mL (≈ 0.153 µM).
As to `CCCCCCCCCC(=O)N[C@@H](Cc1ccc(N2CCCC2)cc1)C(=O)N[C@@H](CC(N)=O)C(=O)N[C@@H](CC(=O)O)C(=O)N[C@@H]1C(=O)NCC(=O)N[C@@H](CCCN)C(=O)N[C@@H](CC(=O)O)C(=O)N[C@H](C)C(=O)N[C@@H](CC(=O)O)C(=O)NCC(=O)N[C@H](CO)C(=O)N[C@@H]([C@@H](C)CC(=O)O)C(=O)N[C@@H](CC(=O)c2ccccc2N)C(=O)O[C@@H]1C`, the minimal inhibitory concentration (MIC) in test [1] stood at 4 µg/mL; in test [2] it was 32 µg/mL; in test [3], 4 µg/mL; in test [4], 1 µg/mL (≈ 0.606 µM).
Take `CCCCCCCCCC(=O)N[C@@H](Cc1ccc(C)cc1)C(=O)N[C@@H](CC(N)=O)C(=O)N[C@@H](CC(=O)O)C(=O)N[C@@H]1C(=O)NCC(=O)N[C@@H](CCCN)C(=O)N[C@@H](CC(=O)O)C(=O)N[C@H](C)C(=O)N[C@@H](CC(=O)O)C(=O)NCC(=O)N[C@H](CO)C(=O)N[C@@H]([C@@H](C)CC(=O)O)C(=O)N[C@@H](CC(=O)c2ccccc2N)C(=O)O[C@@H]1C`: the MIC in test [1] came to 8 µg/mL; in test [2], 8 µg/mL; in test [3], 2 µg/mL; in test [4] it was 1 µg/mL (≈ 0.627 µM).
On to `CCCCCCCCCC(=O)N[C@@H](Cc1ccc(N(C)C)cc1)C(=O)N[C@@H](CC(N)=O)C(=O)N[C@@H](CC(=O)O)C(=O)N[C@@H]1C(=O)NCC(=O)N[C@@H](CCCN)C(=O)N[C@@H](CC(=O)O)C(=O)N[C@H](C)C(=O)N[C@@H](CC(=O)O)C(=O)NCC(=O)N[C@H](CO)C(=O)N[C@@H]([C@@H](C)CC(=O)O)C(=O)N[C@@H](CC(=O)c2ccccc2N)C(=O)O[C@@H]1C`, for which the MIC in test [1] amounted to 2 µg/mL; in test [2], 4 µg/mL; in test [3] it was 2 µg/mL; in test [4], 2 µg/mL (≈ 1.23 µM).
Regarding `CCCCCCCCCC(=O)N[C@@H](COc1ccccc1)C(=O)N[C@@H](CC(N)=O)C(=O)N[C@@H](CC(=O)O)C(=O)N[C@@H]1C(=O)NCC(=O)N[C@@H](CCCN)C(=O)N[C@@H](CC(=O)O)C(=O)N[C@H](C)C(=O)N[C@@H](CC(=O)O)C(=O)NCC(=O)N[C@H](CO)C(=O)N[C@@H]([C@@H](C)CC(=O)O)C(=O)N[C@@H](CC(=O)c2ccccc2N)C(=O)O[C@@H]1C`, the MIC in test [1] is more than 32 µg/mL; in test [2], 32 µg/mL; in test [3], 32 µg/mL; in test [4], 4 µg/mL (≈ 2.5 µM).
On to `CCCCCCCCCC(=O)N[C@@H](Cc1ccc(OC)cc1)C(=O)N[C@@H](CC(N)=O)C(=O)N[C@@H](CC(=O)O)C(=O)N[C@@H]1C(=O)NCC(=O)N[C@@H](CCCN)C(=O)N[C@@H](CC(=O)O)C(=O)N[C@H](C)C(=O)N[C@@H](CC(=O)O)C(=O)NCC(=O)N[C@H](CO)C(=O)N[C@@H]([C@@H](C)CC(=O)O)C(=O)N[C@@H](CC(=O)c2ccccc2N)C(=O)O[C@@H]1C`, for which the MIC in test [1] was 2 µg/mL; in test [2] it was 8 µg/mL; in test [3] it was 2 µg/mL; in test [4], 2 µg/mL (≈ 1.24 µM).
Take `CCCCCCCCCC(=O)N[C@@H](Cc1csc2ccccc12)C(=O)N[C@@H](CC(N)=O)C(=O)N[C@@H](CC(=O)O)C(=O)N[C@@H]1C(=O)NCC(=O)N[C@@H](CCCN)C(=O)N[C@@H](CC(=O)O)C(=O)N[C@H](C)C(=O)N[C@@H](CC(=O)O)C(=O)NCC(=O)N[C@H](CO)C(=O)N[C@@H]([C@@H](C)CC(=O)O)C(=O)N[C@@H](CC(=O)c2ccccc2N)C(=O)O[C@@H]1C`: the MIC was 16 µg/mL in test [1], 4 µg/mL in test [2], 8 µg/mL in test [3] and 2 µg/mL (≈ 1.22 µM) in test [4].
With `CCCCCCCCCC(=O)N[C@@H](Cc1ccc(C(=O)O)cc1)C(=O)N[C@@H](CC(N)=O)C(=O)N[C@@H](CC(=O)O)C(=O)N[C@@H]1C(=O)NCC(=O)N[C@@H](CCCN)C(=O)N[C@@H](CC(=O)O)C(=O)N[C@H](C)C(=O)N[C@@H](CC(=O)O)C(=O)NCC(=O)N[C@H](CO)C(=O)N[C@@H]([C@@H](C)CC(=O)O)C(=O)N[C@@H](CC(=O)c2ccccc2N)C(=O)O[C@@H]1C`, the MIC in test [1], in test [2], in test [3] and in test [4] was more than 32 µg/mL in each case.
Turning to `CCCCCCCCCC(=O)N[C@@H](Cc1ccccc1OC)C(=O)N[C@@H](CC(N)=O)C(=O)N[C@@H](CC(=O)O)C(=O)N[C@@H]1C(=O)NCC(=O)N[C@@H](CCCN)C(=O)N[C@@H](CC(=O)O)C(=O)N[C@H](C)C(=O)N[C@@H](CC(=O)O)C(=O)NCC(=O)N[C@H](CO)C(=O)N[C@@H]([C@@H](C)CC(=O)O)C(=O)N[C@@H](CC(=O)c2ccccc2N)C(=O)O[C@@H]1C`, the MIC in test [1] was found to be 4 µg/mL; in test [2], 8 µg/mL; in test [3] it was 2 µg/mL; in test [4], 2 µg/mL (≈ 1.24 µM).
